Measurements published in patent US6579874B2, “Substituted azoles” (Novartis AG, priority 1999, dated 2003).
Counter-ions that a name gives are not always drawn.

Assays:
[1] = tested on: TNF-α release from hPBMCs; assay: Assay for Inhibition of TNF-α Release from hPBMCs (IFNg/LPS stimulated, ELISA); format: cell-based; conditions: Homo sapiens, 3 h, IFNg (100 U/ml) and LPS, three hours, TNF-α in supernatant by ELISA, read-out: IC50 for suppression of TNF release
Description: Assay for Inhibition of TNF-α Release from hPBMCs
Human peripheral blood mononuclear cells (hPBMCs) are prepared from the peripheral blood of healthy volunteers using ficoll-hypaque density separation according to the method of Hansell et al., J. Imm. Methods (1991) 145: 105. and used at a concentration of 10^5 cells/well in RPMI 1640 plus 10% FCS. Cells are incubated with serial dilutions of the test compounds for 30 minutes at 37° C. prior to the addition of IFNg (100 U/ml) and LPS ([…]) and subsequently further incubated for three hours. Incubation is […] by centrifugation at 1400 RPM for 10 min. TNF-α in the supernatant is measured using a commercial ELISA (Innotest hTNFa, available from Innogenetics N.V., Zwijnaarde, Belgium). Agents of the Invention are tested at concentrations of from […]. Exemplified Agents of the Invention typical suppress TNF release in this assay with an IC50 of from about 500 nM to about 10 nM or less when tested in this assay.

p38 MAP kinase = biological target: T1, p38 MAP kinase (Mus musculus, UniProt P47811); assay: p38 MAP Kinase Assay (phosphorylation of GST-ATF-2, ELISA detection); format: biochemical, murine; conditions: His-p38 MAP kinase, GST-ATF-2 substrate, ATP 120 μM, 1 h at 37° C.; read-out: IC50 for p38 MAP kinase inhibition
T1 construct: a fusion protein comprising full length murine p38 MAP kinase and a His tag; host or cells: E. coli
T1 sequence (P47811 whole entry, the tested form may be a part): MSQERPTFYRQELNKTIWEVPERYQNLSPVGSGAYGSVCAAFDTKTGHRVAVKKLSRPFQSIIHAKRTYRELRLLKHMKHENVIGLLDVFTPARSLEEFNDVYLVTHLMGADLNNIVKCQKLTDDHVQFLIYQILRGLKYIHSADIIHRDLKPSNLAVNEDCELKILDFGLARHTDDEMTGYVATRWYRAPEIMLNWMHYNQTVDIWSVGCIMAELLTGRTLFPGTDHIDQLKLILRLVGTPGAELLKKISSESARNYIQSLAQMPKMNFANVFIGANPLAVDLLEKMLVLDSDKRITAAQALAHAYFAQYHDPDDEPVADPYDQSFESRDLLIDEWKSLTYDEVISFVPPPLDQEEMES
Description: The substrate (GST-ATF-2; a fusion protein comprising amino acids 1-109 of ATF-2 and the GST protein obtained by expression in E. coli) is coated onto the webs of microtiter plates (50 μl/well; 1 μg/ml in PBS/0.02% Na azide) overnight at 4° C. The following day, the microtiter plates are washed four times with PBS/0.5% Tween 20/0.02% Na azide and are blocked with PBS/2% BSA/0.02% Na Azide for 1 h at 37° C. Plates are washed again 4 times with PBS/0.5% Tween 20/0.02% Na azide. The kinase cascade reaction is then started by adding the following reactants in 10 μl aliquots to a final reaction volume of 50 μl.
1. Agents of the Invention titrated from 10 to 0.001 μM in 10-fold dilutions or solvent (DMSO) or H2O.
2. Kinase buffer (5×); pH 7.4; 125 mM Hepes (Stock at 1M; Gibco #15630-056), 125 mM β-glycerophosphate (Sigma #G-6251):125 mM MgCl2 (Merck #5833); 0.5 mM Sodium orthovanadate (Sigma #5-6508), 10 mM DTT (Boehringer Mannheim #708992). The (5×) kinase buffer must be prepared fresh the day of the assay from 5× stock solutions kept at RT. DTT is kept at −20° C. and is added as the last reagent.
3. His-p38 MAP kinase (10 ng/well; Novartis—a fusion protein comprising full length murine p38 MAP kinase and a His tag, obtained by expression in E. coli)
4. cold ATP (final concentration 120 μM; Sigma #A-9187)
After 1 h at 37° C. the kinase reaction is terminated by washing the plates four times as previously described. Phosphorylated GST-ATF-2 is then detected by adding:
1. the PhosphoPlus ATF-2 (Thr71) Antibody (50 μl/well; 1/1000 final dilution in PBS/2% BSA/0.02% Na Azide; New England Biolabs #9221L) for 90 min at RT.
2. Biotin labelled goat-anti-rabbit IgG (50 μl/well; 1/3000 final dilution in PBS/2% BSA/0.02% Na Azide; Sigma #B-9642) for 90 min at RT.
3. Streptavidin-alkaline phosphatase (50 μl/well; 1/5000 dilution in PBS/2% BSA/0.02% Na Azide; Jackson Immunoresearch #016-050-84) for 30 min at RT.
4. Substrate (100 μl/well; Sigma 104 Phosphatase substrate tablets, 5 mg/tablet; #104-105; 1 mg/ml in substrate buffer, Diethanolamine (97 ml/l; Merck #803116)+MgCl2.6H2O (100 mg/l; Merck #5833)+Na Azide (0.2 g/l)+HCl 1M to pH 9.8) 30 min at RT.
After step 1, 2 and 3 the microtiter plates are washed four times with PBS/0.5% Tween 20/0.02% Na azide. After step 4, the plates are read in a Bio-Rad microplate reader in a dual wavelength mode (measurement filter […] and reference filter […]). The background value (without ATP) is subtracted and IC50 values are calculated using the Origin computer program (4 parameter logistic function).

## CN1CCC(O)(c2cn(-c3ccnc(NC4CCCC4)n3)c(-c3cccc(C(F)(F)F)c3)n2)CC1 (as salt: fumarate) [Example 33, 2-(3-Trifluoromethylphenyl)-4-(1-methyl-4-hydroxypiperidin-4-yl)-1-(2-cyclopentylamino-4-pyrimidyl)imidazole]
other
  melting point: 189 to 193 °C

## C[C@H](Nc1nccc(-c2oc(C3CCN(C)CC3)nc2-c2ccc(F)cc2)n1)c1ccccc1 [Example 4]
[1]
  IC50: 1 to 10 nM

## C[C@H](Nc1nccc(-c2oc(C3CCNCC3)nc2-c2ccc(F)cc2)n1)c1ccccc1 [Example 8, 4-(4-Fluorophenyl)-5-(2-[1-(S)-phenylethyl]amino-4-pyrimidyl)-2-(4-NH-piperidine-1-yl)oxazole]
[1]
  IC50: 1 to 10 nM

## Fc1ccc(-c2nc(C3CCNCC3)oc2-c2ccnc(NCC3CC3)n2)cc1 [Example 9, 4-(4-Fluorophenyl)-5-(2-cyclopropylmethylamino-4-pyrimidyl)-2-(4-NH-piperidin-1-yl)oxazole]
p38 MAP kinase
  IC50: 1 to 10 nM
[1]
  IC50: 1 to 10 nM

## C[C@H](Nc1cc(-c2oc(C3(O)CCN(C)CC3)nc2-c2ccc(F)cc2)ccn1)c1ccccc1 [Example 14]
p38 MAP kinase
  IC50: 1 to 10 nM

## CN1CCC(O)(c2nc(-c3ccc(F)cc3)c(-c3ccnc(NCC4CC4)c3)o2)CC1 [Example 15]
p38 MAP kinase
  IC50: 1 to 10 nM

## Fc1ccc(-c2nc(C3CCNCC3)oc2-c2ccnc(NCC3CC3)c2)cc1 [Example 19, 4-(4-Fluorophenyl)-2-(4-NH-piperidine-1-yl)-5-(2-cyclopropylmethylamino-4-pyridyl)oxazole]
[1]
  IC50: 1 to 10 nM

## CC(C)(O)CN1CCC(c2nc(-c3ccc(F)cc3)c(-c3ccnc(NCC4CC4)c3)o2)CC1 [Example 20, 4-(4-Fluorophenyl)-2-(4-N-(2-hydroxy-2-methyl)propylpiperidine-1-yl)-5-(2-cyclopropylmethylamino-4-pyridyl)oxazole]
[1]
  IC50: 1 to 10 nM

## CC(C)(O)CN1CCC(c2nc(-c3ccc(F)cc3)c(-c3ccnc(NC4CCCCC4)c3)o2)CC1 [Example 23, 4-(4-Fluorophenyl)-2-(4-N-(2-hydroxy-2-methyl)propylpiperidine-1-yl)-5-(2-cyclohexylamino-4-pyridyl)oxazole]
[1]
  IC50: 1 to 10 nM

## CN1CCC(O)(c2cn(-c3ccnc(NC4CCCCC4)n3)c(-c3ccc(F)cc3)n2)CC1 [Example 31]
[1]
  IC50: 1 to 10 nM

## CN1CCC(O)(c2cn(-c3ccnc(NC4CC4)n3)c(-c3cccc(C(F)(F)F)c3)n2)CC1 [Example 32, 2-(3-Trifluoromethylphenyl)-4-(1-methyl-4-hydroxypiperidin-4-yl)-1-(2-cyclopropylamino-4-pyrimidyl)imidazole]
[1]
  IC50: 1 to 10 nM

## CN1CCC(O)(c2cn(-c3ccnc(NC4CCCC4)n3)c(-c3cccc(C(F)(F)F)c3)n2)CC1 [Example 33, 2-(3-Trifluoromethylphenyl)-4-(1-methyl-4-hydroxypiperidin-4-yl)-1-(2-cyclopentylamino-4-pyrimidyl)imidazole]
[1]
  IC50: 1 to 10 nM

## C[C@H](Nc1nccc(-n2cc(-c3ccncc3)nc2-c2ccc(F)cc2)n1)c1ccccc1 [Example 35, 2-(4-Fluorophenyl)-1-(2-[1-(S)-phenyl-ethyl]amino-4-pyrimidyl) 4-(4-pyridyl)imidazole]
p38 MAP kinase
  IC50: 1 to 10 nM
[1]
  IC50: 1 to 10 nM

## C[C@H](Nc1nccc(-n2cc(-c3cccc(Cl)c3)nc2-c2ccc(F)cc2)n1)c1ccccc1 [Example 49, 2-(4-Fluorophenyl)-1-(2-[1-(S)-phenyl-ethyl]amino-4-pyrimidyl)-4-(3-chlorophenyl)imidazole]
p38 MAP kinase
  IC50: 1 to 10 nM
[1]
  IC50: 1 to 10 nM

## C[C@H](Nc1nccc(-n2cc(/C=N/NC(=N)N)nc2-c2ccc(F)cc2)n1)c1ccccc1 [Example 50, 2-(4-Fluorophenyl)-1-(2-[1-(S)-phenyl-ethyl]amino-4-pyrimidyl)-4-methyleneaminoguanidinyl-imidazole]
[1]
  IC50: 1 to 10 nM

## CCOC(=O)N1CCC(c2cn(-c3ccnc(N[C@@H](C)c4ccccc4)n3)c(-c3ccc(F)cc3)n2)CC1 [Example 51, 2-(4-Fluorophenyl)-1-(2-(1-(S)-phenylethyl)amino-4-pyrimidyl)-4-(4-ethoxycarbonyl)piperidine-1-yl Imidazole]
p38 MAP kinase
  IC50: 1 to 10 nM
[1]
  IC50: 1 to 10 nM

## C[C@H](Nc1nccc(-n2cc(C3CCNCC3)nc2-c2ccc(F)cc2)n1)c1ccccc1 [Example 52]
p38 MAP kinase
  IC50: 1 to 10 nM
[1]
  IC50: 1 to 10 nM

## C[C@H](Nc1nccc(-n2cc(C3CCN(C=O)CC3)nc2-c2ccc(F)cc2)n1)c1ccccc1 [Example 53, 2-(4-Fluorophenyl)-1-(2-(1-(S)-phenylethyl)amino-4-pyrimidyl)-4-(4-formyl)-piperidine-1-yl Imidazole]
[1]
  IC50: 1 to 10 nM

## C[C@H](Nc1nccc(-n2cc(C3CCN(CC(C)(C)O)CC3)nc2-c2ccc(F)cc2)n1)c1ccccc1 [Example 54]
[1]
  IC50: 1 to 10 nM

## CC(C)(O)CN1CCC(c2cn(-c3ccnc(NC4CCCC4)n3)c(-c3ccc(F)cc3)n2)CC1 [Example 55]
[1]
  IC50: 1 to 10 nM

## C[C@H](Nc1nccc(-n2cc(C3CCN(C)CC3)nc2-c2ccc(F)cc2)n1)c1ccccc1 [Example 56, 2-(4-Fluorophenyl)-1-(2-(1-(S)-phenylethyl)amino-4-pyrimidyl)-4-(4-methyl)-piperidine-1-yl Imidazole]
[1]
  IC50: 1 to 10 nM

## C[C@H](Nc1nccc(-n2cc([C@]3(O)C[C@H]4CC[C@@H](C3)N4C(=O)OC(C)(C)C)nc2-c2ccc(F)cc2)n1)c1ccccc1 [Example 59, 2-(4-Fluorophenyl)-1-(2-(1-(S)-phenylethyl)amino-4-pyrimidyl)-4-(3a-hydroxy-N-tert.butyloxycarbonylnortropan-3b-yl)imidazole]
[1]
  IC50: 1 to 10 nM

## C[C@H](Nc1nccc(-n2cc([C@]3(O)C[C@H]4CC[C@@H](C3)N4)nc2-c2ccc(F)cc2)n1)c1ccccc1 [Example 60, 2-(4-Fluorophenyl)-1-(2-(1-(S)-phenylethyl)amino-4-pyrimidyl)-4-(3a-hydroxy-nortropan-3b-yl)imidazole]
[1]
  IC50: 1 to 10 nM
